Test results as given in PubChem BioAssay AID330 (DTP/NCI, 2004).
Several values for one entry are separate records, joined by “and”; a condition that tells them apart may be missing. Equal values may be shown once. Toxic doses and inconclusive results are not listed. How the source made its calls: active means survival T/C of 150% or more; inactive means T/C below 125% in these data.

Test system: P388 leukemia ip, CD2F1 mice, survival T/C
Assay: NCI In Vivo Anticancer Drug Screen. Data for tumor model P388 Leukemia (intraperitoneal) in CD2F1 (CDF1) mice
Details: endpoint: median survival time, higher = longer survival
How it was run: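 Mice carrying the transplanted tumor received test compound or vehicle. Survival was recorded in each group, and the value is the treated-group measurement divided by that of the vehicle-treated control group.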

[1] = dose: 100.0 mg/kg/injection, schedule: Q01DX009 (ip), vehicle: saline with Tween-80
[2] = dose: 200.0 mg/kg/injection, schedule: Q01DX009 (ip), vehicle: saline with Tween-80
[3] = dose: 60.0 mg/kg/injection, schedule: Q01DX005 (ip), vehicle: saline with Tween-80
[4] = dose: 120.0 mg/kg/injection, schedule: Q01DX005 (ip), vehicle: saline with Tween-80
[5] = dose: 50.0 mg/kg/injection, schedule: Q01DX009 (ip), vehicle: saline with Tween-80

Measured: T/C

Cc1ccc(NS(=O)(=O)c2ccc([N+](=O)[O-])cc2)c(C)c1
inactive: [1] 100 % of control | [2] 105 % of control | dose: 400.0 mg/kg/injection, schedule: Q01DX009 (ip), vehicle: saline with Tween-80 115 % of control

COC(=O)c1cccc2cccc(C(=O)N(C)CCN(C)C)c12
inactive: [3] 97 % of control | [4] 95 % of control

CC1(C)C2=CC3(C)N(CN2c2ccccc21)c1ccccc1C3(C)C (stereo not drawn)
inactive: dose: 60.0 mg/kg/injection, schedule: Q01DX005 (ip), vehicle: Klucel (hydroxypropylcellulose) (HPC) 92 % of control | dose: 120.0 mg/kg/injection, schedule: Q01DX005 (ip), vehicle: Klucel (hydroxypropylcellulose) (HPC) 95 % of control | dose: 240.0 mg/kg/injection, schedule: Q01DX005 (ip), vehicle: Klucel (hydroxypropylcellulose) (HPC) 95 % of control

CCOC(=O)N1CCc2cc(OC)c(OC)cc2/C1=C/c1ccsc1
inactive: dose: 50.0 mg/kg/injection, schedule: Q01DX005 (ip), vehicle: Klucel (hydroxypropylcellulose) (HPC) 105 % of control | dose: 100.0 mg/kg/injection, schedule: Q01DX005 (ip), vehicle: Klucel (hydroxypropylcellulose) (HPC) 102 % of control | dose: 200.0 mg/kg/injection, schedule: Q01DX005 (ip), vehicle: Klucel (hydroxypropylcellulose) (HPC) 96 % of control

CC(=S)SC1(C)SC(C)(SC(C)=S)S1 (stereo not drawn)
inactive: dose: 25.0 mg/kg/injection, schedule: Q01DX009 (ip), vehicle: saline with Tween-80 91 % of control | [5] 94 % of control | [1] 94 % of control

Cc1nn(-c2ccccc2)nc1C(=O)Nc1ccc2[nH]ncc2c1
inactive: [3] 91 % of control | [4] 94 % of control | dose: 240.0 mg/kg/injection, schedule: Q01DX005 (ip), vehicle: saline with Tween-80 86 % of control

CCS(=O)c1ccccc1 (stereo not drawn)
inactive: dose: 100.0 mg/kg/injection, schedule: Q04DX002 (ip), vehicle: Klucel (hydroxypropylcellulose) (HPC) 100 % of control | dose: 200.0 mg/kg/injection, schedule: Q04DX002 (ip), vehicle: Klucel (hydroxypropylcellulose) (HPC) 100 % of control | dose: 400.0 mg/kg/injection, schedule: Q04DX002 (ip), vehicle: Klucel (hydroxypropylcellulose) (HPC) 102 % of control

O=S1(=O)N=C(c2ccccc2)CC(c2ccccc2)N1 (stereo not drawn)
inactive: [5] 100 % of control | [1] 90 % of control | [2] 90 % of control

CCCCCCCCCCCCCCCC(=O)N(CCC#N)C(C)(C)CCC(C)(C)N(CCC#N)C(=O)CCCCCCCCCCCCCCC
inactive: dose: 12.5 mg/kg/injection, schedule: Q01DX009 (ip), vehicle: Klucel (hydroxypropylcellulose) (HPC) 99 % of control | dose: 12.5 mg/kg/injection, schedule: Q04DX003 (ip), vehicle: Klucel (hydroxypropylcellulose) (HPC) 88 % of control | dose: 25.0 mg/kg/injection, schedule: Q01DX009 (ip), vehicle: Klucel (hydroxypropylcellulose) (HPC) 98 % of control | dose: 25.0 mg/kg/injection, schedule: Q04DX003 (ip), vehicle: Klucel (hydroxypropylcellulose) (HPC) 88 % of control | dose: 50.0 mg/kg/injection, schedule: Q01DX009 (ip), vehicle: Klucel (hydroxypropylcellulose) (HPC) 97 % of control | dose: 100.0 mg/kg/injection, schedule: Q01DX009 (ip), vehicle: Klucel (hydroxypropylcellulose) (HPC) 91 % of control | dose: 200.0 mg/kg/injection, schedule: Q01DX009 (ip), vehicle: Klucel (hydroxypropylcellulose) (HPC) 91 % of control | dose: 200.0 mg/kg/injection, schedule: Q04DX003 (ip), vehicle: Klucel (hydroxypropylcellulose) (HPC) 94 % of control

NC(=O)/C=C/C(=O)NC(=O)Cc1ccccc1
inactive: dose: 1.5 mg/kg/injection, schedule: Q01DX009 (ip), vehicle: saline with Tween-80 109 % of control | dose: 3.0 mg/kg/injection, schedule: Q01DX009 (ip), vehicle: saline with Tween-80 110 % of control and 119 % of control | dose: 6.0 mg/kg/injection, schedule: Q01DX009 (ip), vehicle: saline with Tween-80 109 % of control and 116 % of control

COc1cc2oc(=O)cc(C)c2cc1N
inactive: dose: 50.0 mg/kg/injection, schedule: Q04DX002 (ip), vehicle: suspension in saline 109 % of control | dose: 100.0 mg/kg/injection, schedule: Q04DX002 (ip), vehicle: suspension in saline 99 % of control | dose: 200.0 mg/kg/injection, schedule: Q04DX002 (ip), vehicle: suspension in saline 106 % of control

ON1c2ccccc2-c2ccccc2C1(c1ccccc1)c1ccccc1
inactive: dose: 50.0 mg/kg/injection, schedule: Q01DX005 (ip), vehicle: saline with Tween-80 94 % of control | dose: 100.0 mg/kg/injection, schedule: Q01DX005 (ip), vehicle: saline with Tween-80 99 % of control | dose: 200.0 mg/kg/injection, schedule: Q01DX005 (ip), vehicle: saline with Tween-80 90 % of control

NN1C(=O)C2C3C=CC(O3)C2C1=O (stereo not drawn)
inactive: dose: 50.0 mg/kg/injection, schedule: Q01DX005 (ip), vehicle: saline 98 % of control | dose: 100.0 mg/kg/injection, schedule: Q01DX005 (ip), vehicle: saline 98 % of control | dose: 200.0 mg/kg/injection, schedule: Q01DX005 (ip), vehicle: saline 100 % of control
